Laboratory results reported in article PMC7901650, “Garcinoic Acid Is a Natural and Selective Agonist of Pregnane X Receptor” (Journal of Medicinal Chemistry, 2020).

Target: T1, FXR (Homo sapiens, UniProt Q96RI1)
T1 construct: GST-LBD
T1 sequence (Q96RI1 262-486 limits assumed): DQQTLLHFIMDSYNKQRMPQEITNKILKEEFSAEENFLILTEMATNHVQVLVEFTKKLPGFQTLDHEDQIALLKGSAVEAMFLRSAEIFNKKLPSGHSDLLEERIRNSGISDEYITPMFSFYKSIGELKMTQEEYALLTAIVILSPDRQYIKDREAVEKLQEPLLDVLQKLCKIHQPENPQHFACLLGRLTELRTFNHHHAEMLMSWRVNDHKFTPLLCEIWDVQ
Assay: AlphaScreen nuclear receptor panel, FXR
Assay type: biochemical
Description: Ligand binding activity of GA (1) was explored via AlphaScreen technology over a panel of NRs that, along with hPXR (Figure 1A), included major human endocrine and metabolic receptors, such as the retinoid X receptor (RXR), constitutive androstane receptor (CAR), farnesoid X receptor (FXR), vitamin D receptor (VDR), liver X receptor (LXR) forms α and β, and the PPAR isoforms α, δ, and γ (see Figure S1). GA (1) was compared to its analogue δ-tocotrienol (5), the vitamers 3 and 4, their short-chain metabolites (SCMs) α-CEHC (10) and γ-CEHC (11), and the LCMs 2 and 8 (Chart 1). The test was performed in the presence of reference standard agonists for the different NRs.
The activity of nuclear receptors was determined using AlphaScreen technology, a recruitment coactivator assay previously described.[56]
(A) The test was carried out at 10 μM compound final concentration. Ligand binding to nuclear receptors was expressed as luminescence units. […] Vehicle was assessed to obtain a measure of background signal (basal evaluation). […] In presence of the ligand, the nuclear receptor LBD undergoes conformational changes, binds to the coactivator and the chemical energy is transferred from donor to acceptor beads in order to produce a signal, i.e. luminescence; in this case the compounds behaves as agonist, changing the conformation of the receptor to recruit the coactivator. […]

C/C(=C\CC/C(C)=C/CC[C@]1(C)CCc2cc(O)cc(C)c2O1)CC/C=C(\C)C(=O)O [GA (1), (2E,6E,10E)-13-[(2R)-6-hydroxy-2,8-dimethyl-chroman-2-yl]-2,6,10-trimethyltrideca-2,6,10-trienoic acid]
Response on FXR: No response
